# Laboratory results as given in patent publication US7498309B2, “Pharmaceutical compositions for bioactive peptide agents” (Sangstat Medical Corporation, priority 2003, dated 2009).
# Entries after “also recorded” stand apart in the source; their conditions may differ.
# Assays:
# [1] = Fill formulation: solubility and dispersion of the peptide in Labrafil M 1944 CS; type: physicochemical
# Procedure: Fill Formulation. […] The RDP58 peptide was not soluble in Labrafil M 1944 CS, thus a stable suspension of the peptide was made using Colloidal Silicon Dioxide, USP (Aerosil 300) as a suitable dispersing agent. Bench trials were performed to determine the needed quantity of Aerosil 300, which would provide a sufficient viscosity increase to maintain the peptide uniformly suspended for a minimum of 24 hours while allowing the fill formulation to remain flowable or pumpable. The fill formulation for the a 100 mg RDP58 softgel capsule is the following: […]
# [2] = tested on: cynomolgus monkeys with chronic and naturally occurring colitis; test: RDP58 capsule therapy in primates suffering from colitis (stool quality scores); type: in vivo; settings: for response to therapy: capsule from day 0
# Procedure: RDP58 oral therapy is believed to have a beneficial effect on resolution of clinical signs of chronic colitis in primates suffering from a naturally occurring colitis like condition. In these studies, RDP58 was administered in aqueous form (i.e., powder dissolved in water) by oral gavage. The objective of the pilot study described in this example was to analyze the effect of administering RDP58 in capsule form to primates suffering from a chronic, naturally occurring, colitis-like condition. Data generated from this study was compared to data obtained from previous studies where RDP58 peptide was administered in aqueous form.
# Methods. Four cynomolgus monkeys, with documented clinical histories of chronic and naturally occurring colitis, were selected for the study. All animals were monitored for 7 days before initiating therapy. Animals were dosed with one capsule (approximately 13 mg per capsule) every day, starting on Day 0, for 14 days. A commercially available cat pilling gun was used. Disease activity was monitored using stool quality scores. The scoring system used was the following: 1=Normal; 2=Loose stool; 3=Watery diarrhea; and 4=Bloody diarrhea. Response is defined as an improvement in stool quality score by at least 1 point.
# Animals were physically examined twice per day. After 14 days, RDP58 therapy was stopped and animals were monitored for 7 additional days. Stool quality was documented through this period.
# [3] = tested on: cynomolgus monkeys with chronic and naturally occurring colitis; test: as above; type: in vivo; settings: animal MCY33636; capsule from day 0, treatment extended to day 21
# [4] = all animals studied, oral capsule
structure (smiles),measurement,setting,value
"CCCC[C@@H](NC(=O)[C@H](N)CCCNC(=N)N)C(=O)N[C@H](CCCC)C(=O)N[C@H](CCCC)C(=O)N[C@H](CCCNC(=N)N)C(=O)N[C@H](CCCC)C(=O)N[C@H](CCCC)C(=O)N[C@H](CCCC)C(=O)NCC(=O)N[C@H](Cc1ccc(O)cc1)C(N)=O [RDP58, NH2-(D)Arg-(D)nL-(D)nL-(D)nL-(D)Arg-(D)nL-(D)nL-(D)nL-Gly-(D)Tyr-NH2]",dispersion of the peptide,[1]; in Labrafil M 1944 CS,enhanced dispersion
same,solubility in Labrafil M 1944 CS,[1]; suspending agent Labrafil M 1944 CS,not soluble
same,negative side effects,[2]; [4],None of the animals studied showed negative side effects
same,tolerability of dosing,[2]; [4],well tolerated
same,effect on disease activity / therapeutic response,"[2]; all four animals, one capsule (approximately 13 mg) orally every day for 14 days, stool quality scores",positive effects; also recorded: positive therapeutic response
same,response to therapy,[2]; animal 33558,immediate response
same,response to re-treatment,"[2]; animal 33558, re-treated starting on day 23",Response to therapy was immediate
same,time animal remained normal after therapy was stopped,"[2]; animal 33558, therapy stopped on day 14",4 to 5 days
same,response to therapy,[2]; animal MCY33560,immediate response
same,duration of normal stool quality,[2]; animal MCY33636,8 days
same,response to therapy,[2]; animal MCY33639,immediate positive response
same,response to re-treatment,"[2]; animal MCY33639, re-treated on day 23",immediate positive response
same,response to therapy,[3],response was immediate
